What follows are molecules tested on HUH7 cells (assay: Proliferation inhibitory effect for HUH7 cells (SRB assay)). Conditions: Homo sapiens, Huh-7, 72 hours, GI50, read-out: IC50 HUH7 Cell Line.
Format: cell-based
Description: Test Example 2: Measuring Inhibitory Effect of FGFR Inhibitor Using Cell Line
The test was carried out for identifying a proliferation inhibitory effect of the compound of the present invention for HUH7 cells. HUH7 cell lines were counted and 5.0×10^3 cells were inoculated per well in a 96 well plate. After the innoculation, the cells were cultured for 24 hours in a 37 □ and 5% carbon dioxide (CO2) incubator. On the next day, the synthesized compounds were each diluted and prepared. The diluted compounds were introduced to the cell lines inoculated the previous day by concentrations, and reacted for 72 hours in a 37 □ and 5% carbon dioxide (CO2) incubator. However, to a positive control to which the compound was not added, 0.1% dimethyl sulfoxide (DMSO) diluted with a medium was introduced. To a negative control plate, a trichloroacetic acid (TCA) solution was introduced, and fixed at 4 □. After reacting for 72 hours, the medium including the compound was removed, a TCA solution was added thereto, and the cells were fixed for 30 minutes to 60 minutes at 4 □. The TCA solution was discarded, the plate was washed off with distilled water and then dried in the air. A 0.4% sulforhodamin B (SRB) solution was added to the plate and dyed for 10 minutes at room temperature. The plate was washed off with tap water including a 1% acetic acid solution, and then dried in the air. A 10 mM Trizma base solution was added to dissolve the solid SRB. Using a microplate reader, optical density (O.D. value) was measured at 540 nm. A GI50 value of each of the compounds was calculated using GraphPad Prism V6.0 Software.

Compound	IC50 [nM]
C=CC(=O)NC1CCCC1Nc1ncc2cc(-c3c(Cl)c(OC)cc(OC)c3Cl)c3nccn3c2n1 (centres unmarked) [Synthesis Example 1, N-(2-((6-(2,6-dichloro-3,5-dimethoxyphenyl)imidazo[1′,2′:1,6]pyrido[2,3-d]pyrimidin-2-yl)amino)cyclopentyl)acrylamide]	50 to 500
C=CC(=O)N[C@H]1CCOC[C@H]1Nc1ncc2cc(-c3c(Cl)c(OC)cc(OC)c3Cl)c3nccn3c2n1 [Synthesis Example 4, N-((3S,4S)-3-((6-(2,6-dichloro-3,5-dimethoxyphenyl)imidazo[1′,2′:1,6]pyrido[2,3-d]pyrimidin-2-yl)amino)tetrahydro-2H-pyran-4-yl)acrylamide]	50 to 500
C=CC(=O)Nc1ccccc1Nc1ncc2cc(-c3c(Cl)c(OC)cc(OC)c3Cl)c3nccn3c2n1 [Synthesis Example 6, N-(2-((6-(2,6-dichloro-3,5-dimethoxyphenyl)imidazo[1′,2′:1,6]pyrido[2,3-d]pyrimidin-2-yl)amino)phenyl)acrylamide]	< 50
COc1cc(OC)c(Cl)c(-c2cc3cnc(-c4cccc(N5CCOCC5)c4)nc3n3ccnc23)c1Cl [Synthesis Example 80, 4-(3-(6-(2,6-dichloro-3,5-dimethoxyphenyl)imidazo[1′,2′:1,6]pyrido[2,3-d]pyrimidin-2-yl)phenyl)morpholine]	> 500
C=CC(=O)NC1CCCCC1Nc1ncc2cc(-c3c(Cl)c(OC)cc(OC)c3Cl)c3nccn3c2n1 (centres unmarked) [compound 2]	50 to 500
C=CC(=O)NC1COCC1Nc1ncc2cc(-c3c(Cl)c(OC)cc(OC)c3Cl)c3nccn3c2n1 (centres unmarked) [compound 3]	50 to 500
C=CC(=O)N[C@H]1CCOC[C@H]1Nc1ncc2cc(-c3c(F)c(OC)cc(OC)c3F)c3nccn3c2n1 [compound 5]	50 to 500
C=CC(=O)Nc1cccc(Nc2ncc3cc(-c4c(Cl)c(OC)cc(OC)c4Cl)c4nccn4c3n2)c1 [compound 7]	< 50
C=CC(=O)Nc1cccc(C)c1Nc1ncc2cc(-c3cc(OC)cc(OC)c3)c3nccn3c2n1 [compound 8]	> 500
C=CC(=O)Nc1ccc(F)cc1Nc1ncc2cc(-c3c(Cl)c(OC)cc(OC)c3Cl)c3nccn3c2n1 [compound 12]	50 to 500
C=CC(=O)Nc1ccc(N2CCN(CC)CC2)cc1Nc1ncc2cc(-c3c(Cl)c(OC)cc(OC)c3Cl)c3nccn3c2n1 [compound 13]	< 50
C=CC(=O)Nc1cc(F)ccc1Nc1ncc2cc(-c3c(Cl)c(OC)cc(OC)c3Cl)c3nccn3c2n1 [compound 14]	50 to 500
C=CC(=O)Nc1cc(Cl)ccc1Nc1ncc2cc(-c3c(Cl)c(OC)cc(OC)c3Cl)c3nccn3c2n1 [compound 15]	50 to 500
C#Cc1ccc(Nc2ncc3cc(-c4c(Cl)c(OC)cc(OC)c4Cl)c4nccn4c3n2)c(NC(=O)C=C)c1 [compound 16]	50 to 500
C=CC(=O)Nc1cc(C#N)ccc1Nc1ncc2cc(-c3c(Cl)c(OC)cc(OC)c3Cl)c3nccn3c2n1 [compound 17]	50 to 500
C=CC(=O)Nc1cc(C)ccc1Nc1ncc2cc(-c3c(Cl)c(OC)cc(OC)c3Cl)c3nccn3c2n1 [compound 19]	< 50
C=CC(=O)Nc1cc(CC)ccc1Nc1ncc2cc(-c3c(Cl)c(OC)cc(OC)c3Cl)c3nccn3c2n1 [compound 20]	50 to 500
C=CC(=O)Nc1cc(C2CC2)ccc1Nc1ncc2cc(-c3c(Cl)c(OC)cc(OC)c3Cl)c3nccn3c2n1 [compound 21]	50 to 500
C=CC(=O)Nc1cc(C(C)C)ccc1Nc1ncc2cc(-c3c(Cl)c(OC)cc(OC)c3Cl)c3nccn3c2n1 [compound 22]	50 to 500

Compound	IC50 [nM]
C=CC(=O)Nc1cc(C2CCN(C)CC2)ccc1Nc1ncc2cc(-c3c(Cl)c(OC)cc(OC)c3Cl)c3nccn3c2n1 [compound 23]	< 50
C=CC(=O)Nc1cc(N(C)C)ccc1Nc1ncc2cc(-c3c(Cl)c(OC)cc(OC)c3Cl)c3nccn3c2n1 [compound 24]	< 50
C=CC(=O)Nc1cc(OC)ccc1Nc1ncc2cc(-c3c(Cl)c(OC)cc(OC)c3Cl)c3nccn3c2n1 [compound 26]	< 50
C=CC(=O)Nc1cc(OCC)ccc1Nc1ncc2cc(-c3c(Cl)c(OC)cc(OC)c3Cl)c3nccn3c2n1 [compound 27]	< 50
C=CC(=O)Nc1cc(OC(C)C)ccc1Nc1ncc2cc(-c3c(Cl)c(OC)cc(OC)c3Cl)c3nccn3c2n1 [compound 28]	< 50
C=CC(=O)Nc1cc(OCCN(C)C)ccc1Nc1ncc2cc(-c3c(Cl)c(OC)cc(OC)c3Cl)c3nccn3c2n1 [compound 30]	< 50
C=CC(=O)Nc1cc(N2CCCC2)ccc1Nc1ncc2cc(-c3c(Cl)c(OC)cc(OC)c3Cl)c3nccn3c2n1 [compound 33]	50 to 500
COc1cc(OC)c(Cl)c(-c2cc3cnc(Nc4ccc(N5CCOCC5)cc4NC(=O)/C=C/CN(C)C)nc3n3ccnc23)c1Cl [compound 34]	50 to 500
C=CC(=O)Nc1cc(N2CCC(OC)CC2)ccc1Nc1ncc2cc(-c3c(Cl)c(OC)cc(OC)c3Cl)c3nccn3c2n1 [compound 40]	< 50
C=CC(=O)Nc1cc(N2CCC(OC)C2)ccc1Nc1ncc2cc(-c3c(Cl)c(OC)cc(OC)c3Cl)c3nccn3c2n1 (centres unmarked) [compound 41]	< 50
C=CC(=O)Nc1cc(N2CCN(C(=O)C3CC3)CC2)ccc1Nc1ncc2cc(-c3c(Cl)c(OC)cc(OC)c3Cl)c3nccn3c2n1 [compound 42]	< 50
C=CC(=O)Nc1cc(N2CCN(CC3CC3)CC2)ccc1Nc1ncc2cc(-c3c(Cl)c(OC)cc(OC)c3Cl)c3nccn3c2n1 [compound 43]	< 50
C=CC(=O)Nc1cc(N2CC[C@H](OC)C2)ccc1Nc1ncc2cc(-c3c(Cl)c(OC)cc(OC)c3Cl)c3nccn3c2n1 [compound 44]	< 50
C=CC(=O)Nc1cc(N2CC(O)C2)ccc1Nc1ncc2cc(-c3c(Cl)c(OC)cc(OC)c3Cl)c3nccn3c2n1 [compound 45]	< 50
C=CC(=O)Nc1cc(N2CCN(CCOC)CC2)ccc1Nc1ncc2cc(-c3c(Cl)c(OC)cc(OC)c3Cl)c3nccn3c2n1 [compound 46]	< 50
COc1cc(OC)c(Cl)c(-c2cc3cnc(Nc4ccc(N5CCOCC5)cc4NC(=O)/C=C\Cl)nc3n3ccnc23)c1Cl [compound 47]	< 50
C=CC(=O)Nc1cc(N2CCOC(C)C2)ccc1Nc1ncc2cc(-c3c(Cl)c(OC)cc(OC)c3Cl)c3nccn3c2n1 (centres unmarked) [compound 49]	< 50
C=CC(=O)Nc1cc(N2CCC[C@H]2COC)ccc1Nc1ncc2cc(-c3c(Cl)c(OC)cc(OC)c3Cl)c3nccn3c2n1 [compound 50]	< 50
C=CC(=O)Nc1cc(N2CCN(C3CC3)CC2)ccc1Nc1ncc2cc(-c3c(Cl)c(OC)cc(OC)c3Cl)c3nccn3c2n1 [compound 51]	50 to 500

Compound	IC50 [nM]
C=CC(=O)Nc1cc(OC2CCN(CC(F)(F)F)CC2)ccc1Nc1ncc2cc(-c3c(Cl)c(OC)cc(OC)c3Cl)c3nccn3c2n1 [compound 55]	50 to 500
C=CC(=O)Nc1cc(OC2CCN(CC)CC2)ccc1Nc1ncc2cc(-c3c(Cl)c(OC)cc(OC)c3Cl)c3nccn3c2n1 [compound 56]	< 50
C=CC(=O)Nc1cc2c(cc1Nc1ncc3cc(-c4c(Cl)c(OC)cc(OC)c4Cl)c4nccn4c3n1)CCC2 [compound 57]	50 to 500
C=CC(=O)Nc1cc(O[C@@H]2CCOC2)c(F)cc1Nc1ncc2cc(-c3c(Cl)c(OC)cc(OC)c3Cl)c3nccn3c2n1 [compound 59]	< 50
C=CC(=O)Nc1cc(O[C@@H]2CCOC2)c(C)cc1Nc1ncc2cc(-c3c(Cl)c(OC)cc(OC)c3Cl)c3nccn3c2n1 [compound 60]	50 to 500
C=CC(=O)Nc1cc(OC2CCN(C)CC2)c(F)cc1Nc1ncc2cc(-c3c(Cl)c(OC)cc(OC)c3Cl)c3nccn3c2n1 [compound 62]	< 50
C=CC(=O)Nc1cc(F)cc(C)c1Nc1ncc2cc(-c3c(Cl)c(OC)cc(OC)c3Cl)c3nccn3c2n1 [compound 64]	> 500
C=CC(=O)Nc1cc(N2CCOCC2)cc(OC)c1Nc1ncc2cc(-c3c(Cl)c(OC)cc(OC)c3Cl)c3nccn3c2n1 [compound 65]	50 to 500
C=CC(=O)Nc1cc(N2CCN(CC)CC2)cc(F)c1Nc1ncc2cc(-c3c(Cl)c(OC)cc(OC)c3Cl)c3nccn3c2n1 [compound 66]	> 500
C=CC(=O)Nc1cc(N2CCOCC2)cc(F)c1Nc1ncc2cc(-c3c(Cl)c(OC)cc(OC)c3Cl)c3nccn3c2n1 [compound 67]	50 to 500
C=CC(=O)Nc1cc(N2CCOCC2)cc(Cl)c1Nc1ncc2cc(-c3c(Cl)c(OC)cc(OC)c3Cl)c3nccn3c2n1 [compound 68]	> 500
C=CC(=O)Nc1cccnc1Nc1ncc2cc(-c3c(Cl)c(OC)cc(OC)c3Cl)c3nccn3c2n1 [compound 69]	50 to 500
C=CC(=O)Nc1cc(N2CCOCC2)cnc1Nc1ncc2cc(-c3c(Cl)c(OC)cc(OC)c3Cl)c3nccn3c2n1 [compound 70]	50 to 500
C=CC(=O)Nc1cn(C)nc1Nc1ncc2cc(-c3c(Cl)c(OC)cc(OC)c3Cl)c3nccn3c2n1 [compound 71]	50 to 500
C=CC(=O)Nc1cc(N2CCOCC2)ccc1Nc1ncc2cc(-c3c(F)c(OC)cc(OC)c3F)c3nccn3c2n1 [compound 73]	< 50
C=CC(=O)Nc1cccc(Nc2ncc3cc(-c4c(F)c(OC)cc(OC)c4F)c4nccn4c3n2)c1 [compound 74]	< 50
C=CC(=O)Nc1ccccc1Nc1ncc2cc(-c3c(F)c(OC)cc(OC)c3F)c3nccn3c2n1 [compound 75]	< 50
C=CC(=O)Nc1cc(F)cc(F)c1Nc1ncc2cc(-c3c(F)c(OC)cc(OC)c3F)c3nccn3c2n1 [compound 76]	50 to 500

— patent US10696675B2, “Imidazopyridopyrimidine derivative compound and use thereof” (HANMI PHARMACEUTICAL CO., LTD., priority 2016, dated 2020)
